The text below walks through data of patent publication US10710979B2, “EGFR kinase inhibitor and preparation method and use thereof” (ZHEJIANG BOSSAN PHARMACEUTICAL CO. LTD., priority 2015, dated 2020).

Structures are written as SMILES.

Test [1] deals with human lung cancer cells H1975. Nature of the test: Effect of compounds on proliferation of tumor cells (MTT), H1975. The test is classed as cell-based. To be noted: for IC50: Homo sapiens, NCI-H1975, H1975 cells, 72 hours, MTT. As for the experimental part:
(§1) Human lung cancer cells H1975, H522, human hepatoma cell HepG2, human melanoma cell A375, human epidermal cancer cell A431, and human colon cancer cells COLO205 were cultivated. The cells were collected when they have grown to logarithmic growth phase, and centrifuged at 1000 rpm for 5 min, from which the supernatant was discarded, and the rest was suspended with appropriate amount of medium, and the concentration of cells was adjusted to 2.5-5.5×10^4/ml (once it was 3.0-5.5×10^4/ml). The cell suspension was inoculated into a 96-well cell culture plate with 100 μl per well, and placed in a cell incubator (37° C., 5% CO2) for 24 hours, and then 100 μl of the drug diluted in the cell culture medium was added to each well of the drug group. Three duplicate wells were set for each drug, and the negative control group was medium containing 0.5% DMSO. After being incubated for 72 hours in the incubator, 20 μl of MTT (5 mg/ml) was added to each well, which was placed under 37° C. for 3 hours. 150 μl of DMSO was added to each well and shaken at 37° C. for 5 mins, and absorbance (OD) was determined at 492 nm. The Prism Graphpad statistical software was used to calculate IC50 values.

The subject of test [2] is human hepatoma cell HepG2. Kind of test: Effect of compounds on proliferation of tumor cells (MTT), HepG2. In kind it is cell-based. The following applies: 72 hours. As for the experimental part: as §1
In another test the test system is human melanoma cell A375. Kind of test: Effect of compounds on proliferation of tumor cells (MTT), A375. In kind it is cell-based. To be noted: A-375, 72 hours. The protocol: as §1
In test [3] the test system is human epidermal cancer cell A431. Kind of test: Effect of compounds on proliferation of tumor cells (MTT), A431. The test is classed as cell-based. To be noted: A-431, 72 hours. As for the experimental part: as §1
For test [4], the system named is subcutaneously transplanted lung cancer H1975 tumors. Kind of test: In vivo efficacy in inhibiting human lung cancer H1975 xenograft. Further details: species or system BALB/c nude mice. The following applies: 30.0 mg/kg ig qd × 14 d; for Inhibition rate of tumor IR (tumor weight): tumor weight on day 14 vs negative control. The protocol: The inhibitory effect of ES series compounds to subcutaneously transplanted lung cancer H1975 tumors in nude mice was evaluated.
BALB/c nude mice, female, weighing 17-20 g, purchased from Beijing Weitong Lihua Experimental Animal Technology Co., Ltd. (license number: SCXK (Beijing) 2012-0001). Feeding environment: SPF grade animal room, free feeding, 12 h light/12 h dark.
Under aseptic conditions, H1975 cells in the proliferation stage were taken, whose cell concentration was adjusted after digestion, and seeded at armpit of nude mice with a volume of 0.1 mL. Tumor diameter was measured with vernier caliper, and after the tumor was grown to about 400 mm^3, 30 tumor-bearing mice were selected, which were randomly divided into 5 groups according to the size of the tumors. Each group was dosed according to the set dosing regimen, and the administering day was recorded as D1. The negative control group was given the same amount of vehicle. The longer and shorter diameters of tumor were measured twice a week; meanwhile the body weights of mice were weighed.
The relevant indicators were observed, measured and recorded on the first day of dosing. During the experiment, the tumor size was measured with a vernier caliper to observe the volume change and growth rate of the tumor mass. Tumor-bearing mice were sacrificed at the end of the experiment and the tumor mass was dissected and weighed.
Efficacy evaluation indicators include: relative tumor proliferation rate and weight, general status and other related toxicity indicators. At the end of the experiment, the tumor growth curve and weight change curve were drawn for each group.
The calculation formula of tumor volume (TV) is: TV=1/2×a×b^2, in which a and b respectively represent the longer and shorter diameters of the tumor. The relative tumor volume (RTV) was calculated based on the measured results and the formula was: RTV=Vt/V0, in which V0 is the tumor volume measured before dosing, and Vt is the tumor volume at each measurement after dosing.
The evaluation index of anti-tumor activity is relative tumor proliferation rate T/C (%), and the formula is as follows: […], TRTV: treatment group's RTV; CRTV: negative control group's RTV. T/C (%)≤40% and statistical treatment P<0.05 mean effective. The tumor weight (TW) is lower than that of the negative control group and statistical treatment P<0.05 mean effective. Inhibition rate of tumor IR (%)=(1−TTW/CTW)×100%, TTW: treatment group's TW; CTW: negative control group's TW.
The data was expressed as Mean±SD, and t-tests were used for comparison between groups.

Test [5] deals with human lung cancer cells H522. Kind of test: Effect of compounds on proliferation of tumor cells (MTT), H522. The following applies: NCI-H522, 72 hours. In kind it is cell-based. The protocol:
as §1

The test system of test [6] is human colon cancer cells COLO205. Nature of the test: Effect of compounds on proliferation of tumor cells (MTT), COLO205. The test is classed as cell-based. The following applies: COLO 205, 72 hours. As for the experimental part: as §1

On to `C=CC(=O)Nc1cccc(Nc2nc(Nc3ccc(N4CCN(C(C)=O)CC4)nc3OC)ncc2C(F)(F)F)c1` [ES-071], for which the concentration for half-maximal inhibition (IC50) was determined as 22.8 nM in test [1], 968 nM in test [2], 2260 nM in the test on human melanoma cell A375 and 992 nM in test [3]. In test [1] (for most of the tumor cells of Test Example 1), the “Inhibitory concentration relative to control compound 1686” value is “½”. In test [4], the “Inhibition rate of tumor IR (tumor weight)” value (“Inhibition rate of tumor IR” below) was found to be 50.93%.

In the case of `C=CC(=O)Nc1cccc(Nc2nc(Nc3ccc(N4CCN(C)CC4)nc3OC)ncc2C(F)(F)F)c1` [ES-072], the IC50 in test [1] was 34.2 nM; in test [2], 3310 nM; with human melanoma cell A375 it was 2400 nM; in test [3], 774 nM. The “Volume of subcutaneous tumors / anti-tumor effect” value in test [4] (after 14 days) is given as “better than that of the positive control group CO-1686”. Besides, the “Inhibition rate of tumor IR” value in test [4] was 79.42%.

For the compound `C=CC(=O)Nc1cccc(Nc2nc(Nc3ccc(N4CCN(C(=O)COC(C)=O)CC4)nc3OC)ncc2C(F)(F)F)c1` [ES-140], the IC50 in test [1] came to 270 nM; in test [5] it was 2280 nM; in test [2], 5870 nM; in test [6] it was 3160 nM; with human melanoma cell A375, 6460 nM; in test [3], 2080 nM.

`C=CC(=O)Nc1cccc(Nc2nc(Nc3ccc(N4CCN(S(C)(=O)=O)CC4)nc3OC)ncc2C(F)(F)F)c1` [ES-142]: the concentration for half-maximal inhibition (IC50) in test [1] was 80 nM; in test [5], 826 nM; in test [2], 1010 nM; in test [6], 2960 nM; in the test on human melanoma cell A375, 4400 nM; in test [3], 1220 nM.

For the compound `C=CC(=O)Nc1cccc(Nc2nc(Nc3cnc(N4CCN(C)CC4)cc3OC)ncc2C(F)(F)F)c1` [ES-075], the half-inhibitory concentration (IC50) in test [1] worked out at 36.7 nM; in test [2], 3540 nM; in the test with human melanoma cell A375, 2740 nM; in test [3], 1270 nM. In addition, in test [4], the “Inhibition rate of tumor IR” value is reported as 37.27%.

For the compound `C=CC(=O)Nc1cccc(Nc2nc(Nc3ccc(N4CCN(S(=O)(=O)NC)CC4)nc3OC)ncc2C(F)(F)F)c1` [ES-133], the IC50 in test [1] is 430 nM; in test [5], 3390 nM; in test [2], 13200 nM; in test [6], 5660 nM; in the test on human melanoma cell A375, 12500 nM; in test [3], 5680 nM.

For `C=CC(=O)Nc1cccc(Nc2nc(Nc3cnc(N4CCN(C(C)=O)CC4)nc3OC)ncc2C(F)(F)F)c1` [ES-160], the IC50 is 690 nM in test [1]; 3560 nM in test [5]; 5790 nM in test [2]; 5080 nM in test [6]; above 100000 nM in the test with human melanoma cell A375; 7210 nM in test [3].

Regarding `C=CC(=O)Nc1cccc(Nc2nc(Nc3ccc(N4CCN(C(=O)OCC)CC4)nc3OC)ncc2C(F)(F)F)c1` [ES-136], the half-maximal inhibitory concentration (IC50) in test [1] was determined as 175 nM; in test [5] it was 1590 nM; in test [2], 2050 nM; in test [6], 3590 nM; with human melanoma cell A375, 1040 nM; in test [3], 768 nM.

In the case of `C=CC(=O)Nc1cccc(Nc2nc(Nc3ccc(N4CCN(S(=O)(=O)CC)CC4)nc3OC)ncc2C(F)(F)F)c1` [ES-143], the 50% inhibitory concentration (IC50) in test [1] was 480 nM; in test [5] it was 1070 nM; in test [2], 401 nM; in test [6], 2150 nM; with human melanoma cell A375, 2020 nM; in test [3], above 100000 nM.

In the case of `C=CC(=O)Nc1cccc(Nc2nc(Nc3ccc(N4CCN(C(=O)C(C)(C)C)CC4)nc3OC)ncc2C(F)(F)F)c1` [ES-139], the IC50 was 1640 nM in test [1]; 2710 nM in test [5]; 3860 nM in test [2]; 3600 nM in test [6]; 9470 nM in the test on human melanoma cell A375; 4540 nM in test [3].

As for `C=CC(=O)Nc1cccc(Nc2nc(Nc3ccc(N4CCN(C(=O)N(C)C)CC4)nc3)ncc2C(F)(F)F)c1` [ES-158], the half-inhibitory concentration (IC50) is 107 nM in test [1]; 735 nM in test [5]; 3420 nM in test [2]; 1930 nM in test [6]; 3760 nM in the test with human melanoma cell A375; 1070 nM in test [3].

`C=CC(=O)Nc1cccc(Nc2nc(Nc3ccc(NC4CCN(C(=O)C5COC5)C4)nc3OC)ncc2C(F)(F)F)c1` (stereo not drawn) [ES-125]: the half-maximal inhibitory concentration (IC50) in test [1] was determined as 149 nM; in test [5], 3960 nM; in test [2], 16800 nM; in test [6], 5560 nM; with human melanoma cell A375 it was 12200 nM; in test [3], 5040 nM.

With `C=CC(=O)Nc1cccc(Nc2nc(Nc3ccc(N4CCN(S(=O)(=O)C(C)C)CC4)nc3OC)ncc2C(F)(F)F)c1` [ES-145], the IC50 amounted to 542 nM in test [1]; 18000 nM in test [5]; 33300 nM in test [2]; 37600 nM in test [6]; 77800 nM with human melanoma cell A375; 13500 nM in test [3].

In the case of `C=CC(=O)Nc1cccc(Nc2nc(Nc3ccc(N4CCN(C(=O)C(F)(F)F)CC4)nc3OC)ncc2C(F)(F)F)c1` [ES-135], the IC50 was 110 nM in test [1]; 3250 nM in test [5]; 329 nM in test [2]; 8870 nM in test [6]; 1500 nM with human melanoma cell A375; 4430 nM in test [3].

Take `C=CC(=O)Nc1cccc(Nc2nc(Nc3ccc(N4CCN(C(C)=O)CC4)cc3OC)ncc2C(F)(F)F)c1` [Compound 1686, reference compound]: the concentration for half-maximal inhibition (IC50) in test [1] came to 52.5 nM; in test [5] it was 522 nM; in test [2], 1490 nM; in test [6], 4720 nM; in the test on human melanoma cell A375 it was 3000 nM; in test [3], 1570 nM. Also, in test [4], the “Inhibition rate of tumor IR” value is listed as 50.09%.

For the compound `C=CC(=O)Nc1cccc(Nc2nc(Nc3ccc(N4CCN(S(=O)(=O)N(C)C)CC4)nc3OC)ncc2C(F)(F)F)c1` [ES-132], the IC50 is 230 nM in test [1]; 2900 nM in test [5]; 4140 nM in test [2]; 3780 nM in test [6]; 4420 nM in the test with human melanoma cell A375; 2620 nM in test [3].

As to `C=CC(=O)Nc1cccc(Nc2nc(Nc3ccc(NC4CCN(C(C)=O)C4)nc3OC)ncc2C(F)(F)F)c1` (stereo not drawn) [ES-123], the IC50 in test [1] was 150 nM; in test [5] it was 2690 nM; in test [2], 9200 nM; in test [6], 4620 nM; with human melanoma cell A375 it was 8940 nM; in test [3], 4620 nM.

As to `C=CC(=O)Nc1cccc(Nc2nc(Nc3ccc(N4CCN(S(=O)(=O)C5CC5)CC4)nc3OC)ncc2C(F)(F)F)c1` [ES-134], the IC50 in test [1] is 69.1 nM; in test [5], 1640 nM; in test [2] it was 399 nM; in test [6], 2950 nM; in the test with human melanoma cell A375, 3360 nM; in test [3] it was 1720 nM.
